Measurements published in US10407712B2, “Methods, compositions and kits for high throughput kinase activity screening using mass spectrometry and stable isotopes” (President and Fellows of Harvard College, priority 2008, dated 2019).

What was measured:
HEK293 cell lysates = assay: KAYAK in vitro kinase assay, individual reactions, lysates of starved, insulin- or EGF-stimulated HEK293 cells; assay type: biochemical, human; conditions: for E: changed phosphorylation in EGF stimulated condition: EGF-stimulated compared to starved HEK293 cells
Protocol: For stimulation of HEK293 cells or HeLa lines, cells were treated with insulin (100 nM; 10-30 min) EGF (50 ng/ml; 10 min) or phorbol 12-myristate 13-acetate (PMA; 50 or 100 ng/ml; 10 -30 min) at 37° C. for the indicated times after overnight serum-starvation.
(§1) For cell lysis, the media were removed, and cells were washed with ice-cold phosphate-buffered saline (PBS) and lysed with ice-cold lysis buffer (10 mM K2HPO4 pH 7.5, 1 mM EDTA, 10 mM MgCl2, 50 mM β-glycerophosphate, 5 mM EGTA, 0.5% Nonidet P-40, 0.1% Brij 35, 0.1% deoxycholic acid, 1mM sodium orthovanadate, 1mM phenylmethyl-sulfonyl fluoride, 5 μg/ml leupeptin and 5 μg/ml pepstatin A). Lysates were centrifuged at 10,000 rpm for 10 min to remove cell debris, and clear supernatant was used for immunoblotting and in vitro kinase assays. Protein concentration was determined by Bradford assay (Biorad, Hercules, Calif.).
(§2) Peptides were synthesized, purified and quantified as described in Yu et al. 2009 Proc Natl Acad Sci USA 106: 11606-11611, hereby incorporated by reference herein in its entirety. Each substrate peptide (250 pmol) was mixed to a final concentration of 5 μM in the 50 μL reaction mixture. Alternatively, reactions were performed using 6 μg cell lysate aliquotes mixed to a final volume of 20 μl. Cell lysate or other kinase source was added to the substrate mixture in 25 mM Tris-Cl, pH 7.5, containing 5 mM ATP, 7.5 mM MgCl2, 0.2 mM EGTA, 7.5 mM β-glycerophosphate, 0.1 mM Na3VO4, and 0.1 mM DTT. The reaction was incubated at 25° C. for 60 min and then terminated by the addition of 100 μl of 1% trifluoroacetic acid (TFA) containing a known amount of an internal standard (typically 20 pmol). Alternatively, the reaction was incubated at 20° C. for 45 min before termination with TFA.
(§3) Forty-five individual in vitro kinase reaction mixtures were combined and desalted by using Sep-Pak C18 cartridge (Waters, Milford, Mass.). Phosphopeptides were enriched by immobilized metal ion chromatography (IMAC) with 20 μl of beads (Phos-Select iron affinity gel; Sigma, St. Louis, Mo.) and subsequently desalted by using Empore C18 solid phase extraction disks (3M, St. Paul, Minn.) as described previously.
(§4) Quantitation of the target peptide-internal standard ratios was performed by first constructing the extracted ion chromatogram for the most abundant charge state for each peptide using a ±10 ppm window. Chromatograms were integrated using Qual/Quan browser (Xcalibur 2.0.5, Thermo Fisher, San Jose, Calif.). Since the phosphorylated peptides generated from the in vitro kinase reactions were chemically identical to the internal standards, they were assumed to have the same ionization efficiency. Therefore, the amount of each phosphorylated peptide was calculated by direct ratio to the internal standard level.
(§5) To test substrate suitability in a multiplexed assay, the phosphorylation activities were measured using […] of each substrate peptide, 6 μg lysate, and 5 mM ATP in a plate format. Reactions proceeded for 60 minutes followed by acidification and the addition of isotope-labeled reference peptides. After pooling 45 samples, phosphopeptide enrichment was followed by liquid-chromatography (LC) separation and on-line peptide detection by high-resolution mass spectrometry.
The ability of the peptides to report specific changes in kinase activation after pathway stimulation was examined herein. Lysates from HEK293 cells were collected after insulin or EGF treatment and were compared to their activities in the serum-starved state using the KAYAK approach. Western blot analysis of lysates from cells in which the PI3K and MAPK pathways were activated, as indicated by elevated phospho-Akt and phospho-ERK1/2 levels, respectively, is shown in FIG. 1D. […]

recombinant RSK1 = target: T1, recombinant RSK1 (Homo sapiens, UniProt Q15418); assay: In vitro peptide phosphorylation by purified RSK; assay type: biochemical
T1 construct: 90 kDa ribosomal S6 kinases 1 (RSK1, 1-735); purchased Cell Signaling Technology (Danvers, Mass.)
T1 sequence (Q15418 whole entry): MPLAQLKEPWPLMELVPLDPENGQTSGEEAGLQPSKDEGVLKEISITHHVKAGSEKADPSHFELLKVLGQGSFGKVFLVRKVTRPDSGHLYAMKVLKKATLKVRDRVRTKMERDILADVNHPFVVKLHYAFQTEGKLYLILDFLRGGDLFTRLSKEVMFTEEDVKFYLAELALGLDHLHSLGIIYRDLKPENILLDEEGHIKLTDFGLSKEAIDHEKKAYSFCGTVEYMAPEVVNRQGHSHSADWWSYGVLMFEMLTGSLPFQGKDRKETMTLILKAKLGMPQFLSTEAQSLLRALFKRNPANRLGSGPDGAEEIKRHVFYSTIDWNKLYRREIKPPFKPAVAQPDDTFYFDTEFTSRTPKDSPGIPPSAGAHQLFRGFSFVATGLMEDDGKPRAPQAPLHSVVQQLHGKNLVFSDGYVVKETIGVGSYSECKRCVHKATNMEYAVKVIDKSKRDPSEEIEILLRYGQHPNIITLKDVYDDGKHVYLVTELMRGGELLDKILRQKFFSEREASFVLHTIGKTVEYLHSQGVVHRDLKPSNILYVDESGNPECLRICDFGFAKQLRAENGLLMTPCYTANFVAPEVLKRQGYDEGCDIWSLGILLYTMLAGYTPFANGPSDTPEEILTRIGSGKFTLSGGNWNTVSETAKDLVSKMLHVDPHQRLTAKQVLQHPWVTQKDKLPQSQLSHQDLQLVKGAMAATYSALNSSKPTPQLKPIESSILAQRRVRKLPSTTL
Source text: Reaction mixture was supplemented with 0.1% BSA. Other conditions were the same as in FIG. 10A.
Purified human active kinases of Akt1 (full length), extracellular signal-regulated kinase 1 (ERK1, 1-379), mitogen-activated protein kinase kinase 1 (MEK1, 1-393), 90 kDa ribosomal S6 kinases 1 (RSK1, 1-735), cAMP-dependent protein kinase (PKA) catalytic subunit-α (PKA Cα, 1-351), protein kinase Cα (PKCα, full length), epidermal growth factor (EGF) receptor (EGFR, 672-1210), platelet-derived growth factor (PDGF) receptor α (PDGFRα, 550-1090), vascular endothelial growth factor (VEGF) receptor 1 (VEGFR1 784-1338), Src (full length), casein kinase 2 (CK2, full length), Aurora A (1-403), AMP-activated protein kinase α1β1γ1 (AMPK α1β1γ1, full length), glycogen synthase kinase-3α (GSK-3α, 1-483) and MAP/microtubule affinity-regulating kinase 1 (MARK 1, full length) were obtained from Cell Signaling Technology (Danvers, Mass.). Cdc2/cyclin B1 (full length) and insulin-like growth factor (IGF)-I receptor (IGFIR, 959-1367) were obtained from Upstate (Temecula, Calif.).
as §2, with “Each substrate peptide (250 pmol) was mixed to a final concentration of 5 μM in the 50 μL reaction mixture.” left out
It was observed that basal phosphorylation of these peptides was not affected by knockdown and likely was the result of remaining RSK isoforms or other basophilic kinases (FIG. 5C).

HeLa cell lysates = assay: KAYAK in vitro kinase assay, lysates of asynchronous, G1/S- or G2/M-arrested HeLa cells; assay type: biochemical, human; conditions: for G1/S: changed phosphorylation: G1/S phase compared to asynchronously growing HeLa cells; for G2/M: changed phosphorylation: G2/M phase compared to asynchronously growing HeLa cells
Protocol: For cell cycle examples, HeLa cells were synchronized by double thymidine block for G1/S-arrest and by 0.2 μg/ml nocodazole for G2/M-arrest as described (Dephoure et al. 2008 Proc Natl Acad Sci USA 105: 10762-10767). Synchronization was confirmed by flow cytometry.
as §1, §2, §3, §4, §5
In order to examine target peptides with cell-cycle-dependent phosphorylation, kinase activities in asynchronously growing HeLa cells were profiled and the profiles were compared with those of cells synchronized in G1/S and G2/M phase using a double-thymidine block and nocodazole arrest, respectively (FIG. 3B).

PI3K and MAPK pathways = assay: KAYAK profiling of cancer cell lines with or without gefitinib: PI3K and MAPK activity; assay type: cell-based, human
Protocol: MCF7 and MBA-MB231 cells were maintained in DMEM supplemented with 10% FBS. Sum159 cells were maintained in Ham's F12 media supplemented with 5% FBS, 5μg/ml hydrocortisone. MCF10A, MCF10A, ErbB2, MCF10A/IGFR, and MCF10A/H-Ras^G12V cells were generously provided by J. Brugge (Debnath et al. 2002 Cell 111: 29-40; Irie et al. 2005 J Cell Biol 171: 1023-1034; Reginato et al. 2003 Nat Cell Biol 5: 733-740) and were maintained in 50/50 DMEM/F12 media supplemented with 5% horse serum, 20 ng/ml EGF, 100 ng/ml cholera toxin, 10 μg/ml insulin, and 500 ng/ml hydrocortisone. Breast cancer cells were treated also with 1 μM of gefitinib (LC laboratories) for 24 h before lysis and KAYAK analysis. The mutation data was obtained from Wellcome Trust Sanger Institute Cancer Genome Project Web site (Hollestele et al. 2007 Mol Cancer Res 5:195-201).
as §2
In tumors, activating mutations are often found in core signaling pathways (McLendon et al. 2008 Nature 455: 1061-1068). […]. The cell lines were chosen to represent the highly heterogeneous nature of breast cancer.

Compound | E: changed phosphorylation in EGF stimulated condition (HEK293 cell lysates) | G1/S: changed phosphorylation (HeLa cell lysates) | G2/M: changed phosphorylation (HeLa cell lysates) | further results
SKRRNSEFEIPFR (The sequence was designed and synthesized) [G5] | + (A change of more +2 fold and −2 fold is indicated by “+” and “−”, respectively.) | – | – | phosphorylation by recombinant RSK1 in vitro (recombinant RSK1): robustly phosphorylate
NQDPVSPSLVPFR (The sequence was designed and synthesized) [B5] | – | −− (A change of more than +4 and −4 fold is indicated by “++” and “−−”, respectively.) | − (A change of more +2 fold and −2 fold is indicated by “+” and “−”, respectively.) | –
KKKRFSFKKSPFR (The sequence was designed and synthesized) [G10] | – | – | – | conversion of the substrate (HEK293 cell lysates; serum-starved HEK293 lysate, 100 μM peptide, 6 μg lysate, 60 min, highest activity peptide): 18%
IPINGSPRTPPFR (The sequence was designed and synthesized) [B4] | + (A change of more +2 fold and −2 fold is indicated by “+” and “−”, respectively.) | – | ++ (A change of more than +4 and −4 fold is indicated by “++” and “−−”, respectively.) | –
LKLSPSPSSRPFR (The sequence was designed and synthesized) [B11] | – | + (A change of more +2 fold and −2 fold is indicated by “+” and “−”, respectively.) | ++ (A change of more than +4 and −4 fold is indicated by “++” and “−−”, respectively.) | –
FKNIVTPRTPPFR (The sequence was designed and synthesized) [D10] | – | – | ++ (A change of more than +4 and −4 fold is indicated by “++” and “−−”, respectively.) | –
NLLPLSPEEFPFR (The sequence was designed and synthesized) [D7] | – | −− (A change of more than +4 and −4 fold is indicated by “++” and “−−”, respectively.) | −− (A change of more than +4 and −4 fold is indicated by “++” and “−−”, respectively.) | –
COc1cc2ncnc(Nc3ccc(F)c(Cl)c3)c2cc1OCCCN1CCOCC1 [gefitinib] | – | – | – | activation of MAPK after treatment (PI3K and MAPK pathways; HeLa cells, 1 μM): not to be affected; activity in PI3K and MAPK pathway after treatment (PI3K and MAPK pathways; MCF7, 1 μM, 24 h): decreased activity; MAPK activity after treatment (PI3K and MAPK pathways; MCF10A cells overexpressing RasV12, 1 μM, 24 h): gefitinib-resistance; PI3K and MAPK activity after treatment (PI3K and MAPK pathways; MCF10A/ErbB2, 1 μM, 24 h): strongly inhibited; PI3K and MAPK activity after treatment (PI3K and MAPK pathways; MCF10A/IGFR, 1 μM, 24 h): strongly inhibited; MAPK activity after treatment (PI3K and MAPK pathways; MDA-MB231 cells, 1 μM, 24 h): completely refractory; MAPK activity after treatment (PI3K and MAPK pathways; Sum159 cells, 1 μM, 24 h): some sensitivity; PI3K and MAPK activity after treatment (PI3K and MAPK pathways; normal MCF10A cells, 1 μM, 24 h): strongly inhibited
PSTNSSPVLKPFR (The sequence was designed and synthesized) [A12] | – | – | + (A change of more +2 fold and −2 fold is indicated by “+” and “−”, respectively.) | –
VKRQSSTPSAPFR (The sequence was designed and synthesized) [B7] | – | −− (A change of more than +4 and −4 fold is indicated by “++” and “−−”, respectively.) | −− (A change of more than +4 and −4 fold is indicated by “++” and “−−”, respectively.) | –
PKRKVSSAEGPFR (The sequence was designed and synthesized) [B6] | + (A change of more +2 fold and −2 fold is indicated by “+” and “−”, respectively.) | – | − (A change of more +2 fold and −2 fold is indicated by “+” and “−”, respectively.) | increase in phosphorylation after EGF (HEK293 cell lysates; EGF-stimulated vs serum-starved HEK293 lysate): 3 fold; phosphorylation by recombinant RSK1 in vitro (recombinant RSK1): robustly phosphorylate
NKRRGSVPILPFR (The sequence was designed and synthesized) [C11] | + (A change of more +2 fold and −2 fold is indicated by “+” and “−”, respectively.) | – | – | phosphorylation by recombinant RSK1 in vitro (recombinant RSK1): robustly phosphorylate
IPTGTTPQRKPFR (The sequence was designed and synthesized) [C2] | – | – | ++ (A change of more than +4 and −4 fold is indicated by “++” and “−−”, respectively.) | increase in phosphorylation in G2/M (HeLa cell lysates; G2/M (nocodazole-arrested) HeLa lysate vs asynchronously growing cells): 19 fold
